We go through 2 molecules from patent publication US11311498B2, “Use of cannabinoids in the treatment of epilepsy” (GW Pharma Limited, priority 2014, dated 2022).

For series [1], the system named is myoclonic absence seizures. In words: Expanded access program: myoclonic absence seizures in children and young adults with treatment-resistant epilepsy. It is filed as in vivo, human. The conditions noted are these: 12 weeks of treatment vs 4-week baseline; head n = 10; CBD 5 up to 25 mg/kg/day added to baseline AED. The protocol: (§1) The terms “50% responder” and “50% reduction in seizure” are both terms used in clinical studies. In the present application the terms define the percentage of subjects that experienced a greater than or equal to 50% reduction in the number of seizures during treatment with CBD in comparison to the number experienced during the baseline period before the CBD was administered.
Of 137 children and young adults with severe, childhood onset treatment-resistant epilepsy (TRE), ten suffered from epilepsy that was characterised by myoclonic absence seizures. These subjects were tested with a highly purified extract of cannabidiol (CBD) obtained from a cannabis plant. All subjects presented with myoclonic absence type seizures, often in addition to other generalised and/or focal seizures. The participants in the study were part of an expanded access compassionate use program for CBD.
The epileptic syndromes that these patients suffered from were as follows: Myoclonic Absence Epilepsy; Doose Syndrome; and epilepsy of unknown cause.
(§2) All patients entered a baseline period of 4 weeks when parents/caregivers kept prospective seizure diaries, noting all countable seizure types.
The patients then received a highly purified CBD extract (greater than 98% CBD w/w) in sesame oil, of known and constant composition, at a dose of 5 mg/kg/day in addition to their baseline anti-epileptic drug (AED) regimen. […]

Series [2] deals with seizures. The conditions noted are these: of eight adult patients with generalized epilepsy; cited from earlier work.
Another series has as its system absence seizures. In words: Expanded access program: absence seizures in children and young adults with treatment-resistant epilepsy. It is filed as in vivo, human. The note with it: 12 weeks of treatment vs 4-week baseline; n = 28; CBD 5 up to 25 mg/kg/day added to baseline AED. The protocol:
as §1
(§3) Of 137 children and young adults with severe, childhood onset treatment-resistant epilepsy (TRE), forty-two suffered from epilepsy that was characterised by absence seizures. These subjects were tested with a highly purified extract of cannabidiol (CBD) obtained from a cannabis plant. All subjects presented with absence type seizures, often in addition to other generalised and/or focal seizures. The participants in the study were part of an expanded access compassionate use program for CBD.
The epileptic syndromes that these patients suffered from were as follows: Lennox-Gastaut Syndrome; Myoclonic Absence Epilepsy; Tuberous Sclerosis Complex; Dravet Syndrome; Doose Syndrome; Jeavons Syndrome; CDKL5; Dup15q; Neuronal ceroid lipofuscinoses (NCL) and brain abnormalities. […]

For series [3], the system named is seizures. The conditions noted are these: 200 mg/day pure CBD, cited from earlier work.
A short description of series [4]: Solubility of the drug substance in water. It counts as physicochemical. The source says: Sesame oil was selected as an excipient to solubilize the drug substance.
The next series concerns seizures in mice. The conditions noted are these: after pro-convulsant drugs or an electric current; cited from earlier work.
For another series, the system named is total seizures. Briefly: Expanded access program: total seizures in all subjects treated. It counts as in vivo, human. The conditions noted are these: 12 weeks of treatment, n = 137. The protocol:
as §1, §3, §2
The patients then received a highly purified CBD extract (greater than 98% CBD w/w) in sesame oil, of known and constant composition, at a dose of 5 mg/kg/day in addition to their baseline anti-epileptic drug (AED) regimen.
Laboratory testing for hematologic, liver, kidney function, and concomitant AED levels was performed at baseline, and after every 4 weeks of CBD therapy.

Series [5] has as its system seizures. The conditions noted are these: twelve institutionalized adult patients; 200 mg/day pure CBD; open label; cited from earlier work.
For series [6], the system named is seizures. The conditions noted are these: previous studies in animals; multiple species and models; cited from earlier work.
The test system of series [7] is seizures. The note with it: Consroe et al., 1977; cited from earlier work.

`C=C(C)[C@@H]1CCC(C)=C[C@H]1c1c(O)cc(CCCCC)cc1O` [CBD, Cannabidiol]: the “<50% reduction in seizures, myoclonic absence seizures (proportion of patients)” value in [1] is on record as 25% (n = 2). The “patients with marked reduction of seizures” value in the series with seizures [2] is 4. In addition, the “<50% reduction in seizures, absence seizures (proportion of patients)” value in the series on absence seizures is given as 36% (n = 10). The “patients who became seizure free” value with seizures [3] (of four adult patients) is on record as “two”. Also, in the series on seizures [3] (remaining two of four adult patients), the “seizure frequency in the remainder of patients” value is “unchanged”. Moreover, the solubility in water entry in [4] is “insoluble in water”. Moreover, the prevention of seizures entry with seizures in mice is given as “able to prevent seizures”. Also, the “<50% reduction in seizures, total seizures (proportion of patients)” value in the series with total seizures was 54% (n = 74). The control of seizures entry with seizures [5] is on record as “ineffective in controlling seizures”. For the same molecule, the anticonvulsant efficacy result in the series on seizures [6] was “has anticonvulsant efficacy in multiple species and models”.

Consider `CCCCCc1cc(O)c2c(c1)OC(C)(C)[C@@H]1CCC(C)=C[C@@H]21` [THC, Tetrahydrocannabinol], for which, in the series with seizures [7], the effect on convulsions entry is reported as “pro-convulsant”.
